Our source for the chromatographic logP values is US7932283B2, “Fungicide N-cyclopropyl-sulfonylamide derivatives” (Bayer Cropscience AG, priority 2006, dated 2011).

Each structure is given as a SMILES string.

Broadly, the chromatographic logP is a lipophilicity value derived from retention on a column. Low readings indicate lower lipophilicity, high ones higher lipophilicity.

The nature of the first data set: logP by HPLC on reversed-phase column (C 18), EEC Directive 79/B31 Annex V.A8, methods A and B. The settings on record: reversed-phase HPLC column (C 18), HPLC reversed-phase C 18, method A: 43° C., 0.1% aqueous phosphoric acid, acetonitrile, linear gradient 10% to 90% acetonitrile. The class given is physicochemical. The protocol:
Calibration was carried out using unbranched alkan-2-ones (having 3 to 16 carbon atoms) with known logP values (determination of the logP values by the retention times using linear interpolation between two successive alkanones).
Consider `Cc1ncc(C(=O)N(C2CC2)S(=O)(=O)c2ccc(O)cc2O)s1` [Compound 64], for which the chromatographic logP is 2.91. As for `Cc1nc(C(F)(F)F)c(C(=O)N(C2CC2)S(=O)(=O)c2ccccc2O)s1` [Compound 59], the chromatographic logP is 3.2. Take `CCOC(=O)c1[nH]c(C)c(C(=O)N(C2CC2)S(=O)(=O)c2ccc(C(C)(C)C)cc2)c1C` [Compound 33]: the chromatographic logP came to 4.13. Turning to `Cc1nn(C)c(F)c1C(=O)N(C1CC1)S(=O)(=O)c1ccc([N+](=O)[O-])cc1` [Compound 185], the chromatographic logP is 2.54.

`Cc1nn(C)c(F)c1C(=O)N(C1CC1)S(=O)(=O)c1cc(O)cc(O)c1` [Compound 193] gave a chromatographic logP of 3.48.

Compound `CCOC(=O)c1[nH]c(C)c(C(=O)N(C2CC2)S(=O)(=O)c2ccc(O)cc2O)c1C` [Compound 32] yielded a chromatographic logP of 3.63.

`Cn1nc(C(F)(F)F)c(C(=O)N(C2CC2)S(=O)(=O)c2ccccc2O)c1O` [Compound 208] came in with a chromatographic logP of 3.27. Regarding `Cc1nc(C(=O)N(C2CC2)S(=O)(=O)c2ccc(O)c(O)c2)cs1` [Compound 70], the chromatographic logP was determined as 3.46. Compound `Cc1nn(C)c(F)c1C(=O)N(C1CC1)S(=O)(=O)c1cccc([N+](=O)[O-])c1` [Compound 195] registered a chromatographic logP of 2.48.

Staying with this data set, now noted: reversed-phase HPLC column (C 18), HPLC reversed-phase C 18, method B: 40° C., 0.1% aqueous formic acid and acetonitrile, linear gradient 10% to 90% acetonitrile.
Compound `Cc1cc(C(=O)N(C2CC2)S(=O)(=O)c2ccc(Oc3ccc(Br)cc3)cc2)nn1C` [Compound 77] returned a chromatographic logP of 4.

Take `CCCCc1ccc(S(=O)(=O)N(C(=O)c2c(CC)nn(C)c2F)C2CC2)cc1` [Compound 383]: the chromatographic logP amounted to 4.2. The same measure, in the same setting: to `Cn1nc(C(F)F)c(C(=O)N(C2CC2)S(=O)(=O)c2ccccc2O)c1F` [Compound 103] belongs 2.8. On the same count and under the same terms, the result for `Cn1nc(C(F)(F)F)c(C(=O)N(C2CC2)S(=O)(=O)c2cc(O)c(O)cc2O)c1F` [Compound 361] reads 4; that for `COc1cscc1C(=O)N(C1CC1)S(=O)(=O)c1ccc(Oc2ccc(Br)cc2)cc1` [Compound 28], 4.4; that for `Cn1nc(C(F)(F)F)c(C(=O)N(C2CC2)S(=O)(=O)c2ccccc2OC(F)(F)F)c1F` [Compound 365], 3.2. Still for that read-out and setting: the result for `Cn1nc(C(F)(F)F)c(C(=O)N(C2CC2)S(=O)(=O)c2ccc(F)cc2Br)c1F` [Compound 368] reads 3.2; that for `CC(F)c1nn(C)cc1C(=O)N(C1CC1)S(=O)(=O)c1cccc(O)c1O` (stereo not shown) [Compound 119], 2.8; that for `CCCCc1ccc(S(=O)(=O)N(C(=O)c2c(C(F)(F)F)nn(C)c2F)C2CC2)cc1` [Compound 359], 4.3.

With `CCCOc1nn(C)cc1C(=O)N(C1CC1)S(=O)(=O)c1ccc(Oc2cc(O)cc(O)c2)cc1Br` [Compound 305], the chromatographic logP came out at 5.1.

In turn, `Cc1cc(C(=O)N(C2CC2)S(=O)(=O)c2ccc(Oc3ccccc3)cc2)nn1C` [Compound 76] showed a chromatographic logP of 3.4. Same read-out and setting: the result for `Cc1nn(C)c(C#N)c1C(=O)N(C1CC1)S(=O)(=O)c1ccc(O)c(O)c1O` [Compound 228] reads 3.9; that for `COc1cscc1C(=O)N(C1CC1)S(=O)(=O)c1cccc(O)c1O` [Compound 25], 3.3; that for `CCCOc1nn(C)cc1C(=O)N(C1CC1)S(=O)(=O)c1ccc(Oc2ccc(O)cc2)cc1Br` [Compound 295], 4.5. As to `Cn1nc(C(F)(F)F)c(C(=O)N(C2CC2)S(=O)(=O)c2ccc(F)cc2O)c1F` [Compound 362], the chromatographic logP came out at 3.1. Compound `COc1nn(C)c(O)c1C(=O)N(C1CC1)S(=O)(=O)c1ccc(Oc2ccccc2)cc1` [Compound 280] yielded a chromatographic logP of 3.8. In turn, `Cn1nc(-c2ccccc2)c(C(=O)N(C2CC2)S(=O)(=O)c2cccc(O)c2O)c1F` [Compound 101] came in with a chromatographic logP of 3.7. For `Cn1nc(C(F)F)c(C(=O)N(C2CC2)S(=O)(=O)c2ccccc2C(F)(F)F)c1F` [Compound 106], the chromatographic logP worked out at 3. In turn, `CC(C)c1nn(C)c(F)c1C(=O)N(C1CC1)S(=O)(=O)c1cccc(O)c1O` [Compound 93] had a chromatographic logP of 3.6. Still for that read-out and setting: the result for `CCCOc1nn(C)cc1C(=O)N(C1CC1)S(=O)(=O)c1ccc(Oc2cccc(C(F)(F)F)c2)cc1Br` [Compound 297] reads 4.5. Compound `Cn1nc(C(F)(F)F)c(C(=O)N(C2CC2)S(=O)(=O)c2ccc(Oc3ccccc3)cc2)c1F` [Compound 370] displayed a chromatographic logP of 3.9.

Take `CCc1nn(C)c(F)c1C(=O)N(C1CC1)S(=O)(=O)c1ccc(Oc2cccc(C(F)(F)F)c2)cc1` [Compound 388]: the chromatographic logP was 4.2.

Still in this data set, the particulars now being: reversed-phase HPLC column (C 18), LogP method A: HPLC reversed-phase C 18, 43° C., 0.1% aqueous phosphoric acid / acetonitrile, linear gradient 10% to 90% acetonitrile.
In the case of `CCc1onc(C(C)C)c1C(=O)N(C1CC1)S(=O)(=O)c1ccc(C(C)(C)C)cc1` [Compound 597], the chromatographic logP was 4.98.

In turn, `O=C(c1cccnc1)N(C1CC1)S(=O)(=O)c1ccc(O)c(C(F)(F)F)c1` [Compound 638] returned a chromatographic logP of 3.1.

Take `Cc1nn(C)c(C)c1C(=O)N(C1CC1)S(=O)(=O)c1ccc(O)cc1O` [Compound 413]: the chromatographic logP stood at 2.8. `CC(C)c1c(C(=O)N(C2CC2)S(=O)(=O)c2ccc(C(C)(C)C)cc2)sc(=O)n1C1CC1` [Compound 636] displayed a chromatographic logP of 3.01. On the same count and under the same terms, the result for `Cc1noc(C)c1C(=O)N(C1CC1)S(=O)(=O)c1ccc(O)c(O)c1` [Compound 591] reads 3.72; that for `Cc1noc(C)c1C(=O)N(C1CC1)S(=O)(=O)c1ccc(O)cc1O` [Compound 592], 3.41; that for `Cc1c(C(=O)N(C2CC2)S(=O)(=O)c2ccc(O)c(C(F)(F)F)c2)sc(=O)n1Cc1ccccc1` [Compound 625], 3.01. In the case of `CC(C)c1c(C(=O)N(C2CC2)S(=O)(=O)c2ccc(O)c(C(F)(F)F)c2)sc(=O)n1C1CC1` [Compound 633], the chromatographic logP is 3.01. In turn, `CC(C)c1c(C(=O)N(C2CC2)S(=O)(=O)c2ccc(O)cc2O)sc(=O)n1C1CC1` [Compound 635] came in with a chromatographic logP of 2.01. Still for that read-out and setting: the result for `Cc1c(C(=O)N(C2CC2)S(=O)(=O)c2ccc(C(C)(C)C)cc2)sc(=O)n1C` [Compound 624] reads 2.01. In the case of `Cc1nn(C)c(F)c1C(=O)N(C1CC1)S(=O)(=O)c1cnc(O)c(Br)c1` [Compound 447], the chromatographic logP was determined as 3.08. Same read-out and setting: to `Cc1n[nH]c(C)c1C(=O)N(C1CC1)S(=O)(=O)c1ccc(O)c(C(F)(F)F)c1` [Compound 408] belongs 3; to `CC(C)c1c(C(=O)N(C2CC2)S(=O)(=O)c2cccc(O)c2)sc(=O)n1C1CC1` [Compound 617], 2.01; to `CC(C)c1c(C(=O)N(C2CC2)S(=O)(=O)c2ccc(O)c(O)c2)sc(=O)n1C1CC1` [Compound 634], 3.01. Compound `Cc1nn(C)c(C)c1C(=O)N(C1CC1)S(=O)(=O)c1ccc(C(F)(F)F)cc1` [Compound 403] returned a chromatographic logP of 3. With `COCCn1c(C)c(C(=O)N(C2CC2)S(=O)(=O)c2ccc(O)cc2O)sc1=O` [Compound 620], the chromatographic logP turned out to be 2.01. `COCCn1c(C)c(C(=O)N(C2CC2)S(=O)(=O)c2ccc(C(F)(F)F)cc2)sc1=O` [Compound 610] came in with a chromatographic logP of 2.01.

Compound `CC(C)c1c(C(=O)N(C2CC2)S(=O)(=O)c2ccc(C(F)(F)F)cc2)sc(=O)n1C1CC1` [Compound 618] yielded a chromatographic logP of 4.03.

The data set is the same for the next values; noted with them: reversed-phase HPLC column (C 18), LogP method B: HPLC reversed-phase C 18, 40° C., 0.1% aqueous formic acid / acetonitrile, linear gradient 10% to 90% acetonitrile.
Regarding `O=C(c1cccnc1O)N(C1CC1)S(=O)(=O)c1ccc(O)c(O)c1O` [Compound 647], the chromatographic logP worked out at 3.7. In the case of `COc1ccc(Oc2ccc(S(=O)(=O)N(C(=O)c3cn(C)nc3OC)C3CC3)c(Br)c2)cc1OC` [Compound 462], the chromatographic logP is 2.9. With `O=C(c1cccnc1F)N(C1CC1)S(=O)(=O)c1cccc(O)c1O` [Compound 649], the chromatographic logP was determined as 2.4. The same measure, in the same setting: to `COc1ccc(Oc2ccc(S(=O)(=O)N(C(=O)c3cn(C)nc3OC)C3CC3)c(Br)c2)cc1` [Compound 463] belongs 3.3; to `COc1nn(C)cc1C(=O)N(C1CC1)S(=O)(=O)c1ccc(Oc2ccc(C)nc2)cc1Br` [Compound 458], 2; to `COc1nn(C)cc1C(=O)N(C1CC1)S(=O)(=O)c1ccc(Oc2cccc(Br)c2)cc1Br` [Compound 473], 3.8. Still for that read-out and setting: to `O=C(c1cccnc1O)N(C1CC1)S(=O)(=O)c1ccc(Oc2ccc(Br)cc2)cc1` [Compound 648] belongs 4.3; to `COc1nn(C)cc1C(=O)N(C1CC1)S(=O)(=O)c1ccc(Oc2ccc(Br)c(O)c2)cc1Br` [Compound 480], 4.2; to `COc1nn(C)cc1C(=O)N(C1CC1)S(=O)(=O)c1ccccc1C(F)(F)F` [Compound 460], 2.3. The same measure, in the same setting: the result for `COc1nn(C)cc1C(=O)N(C1CC1)S(=O)(=O)c1ccc(Oc2cccc(O)c2)cc1Br` [Compound 468] reads 3.7. The compound `COc1nn(C)cc1C(=O)N(C1CC1)S(=O)(=O)c1ccc(Oc2ccc(C)cc2)cc1Br` [Compound 467] displayed a chromatographic logP of 3.7. Same read-out and setting: to `COc1nn(C)cc1C(=O)N(C1CC1)S(=O)(=O)c1cnc(O)c(Br)c1` [Compound 449] belongs 2. The same measure, in the same setting: the result for `COc1nn(C)cc1C(=O)N(C1CC1)S(=O)(=O)c1ccc(Oc2ccccc2O)cc1Br` [Compound 465] reads 3.5; that for `O=C(c1cccnc1O)N(C1CC1)S(=O)(=O)c1ccc(Oc2ccccc2)cc1` [Compound 646], 3.7.

The data set is the same for the next values; noted with them: reversed-phase HPLC column (C 18), Method A: 43° C., 0.1% aqueous phosphoric acid, acetonitrile.
As for `Cc1nn(C)c(F)c1C(=O)N(C1(c2ccc(O)cc2)CC1)S(=O)(=O)c1cccc(O)c1O` [Compound 669], the chromatographic logP was 4.44.
